Experimental data as given in patent US20160270397A1, “Herbicidal Composition Comprising ACC Inhibitors” (BASF SE, priority 2013, published 2016).
Read-outs that look alike come from different tables or passages of the source.

Legend:
SETVI = experiment: Greenhouse post-emergence treatment, herbicidal activity against SETVI; assay type: in vivo, Setaria viridis L.
Method: (§1) The culture containers used were plastic pots containing loamy sand with approximately 2-3.0% of organic matter. The seeds of the test plants were sown separately for each species.
(§2) For the post-emergence treatment, the test plants were grown to a plant height of from 3 to 15 cm, depending on the plant habit, and only then treated with the active compounds which had been suspended or emulsified in water. To this end, the test plants were either sown directly, and grown in the same containers, or they were first grown separately as seedlings and transplanted into the test containers a few days prior to treatment.
(§3) Depending on the species, the plants were kept at 10-25° C. and 20-35° C., respectively. The test period extended over 1 to 4 weeks. During this time, the plants were tended and their response to the individual treatments was evaluated.
(§4) Evaluation was carried out using a scale from 0 to 100. 100 means no emergence of the plants, or complete destruction of at least the above-ground parts, and 0 means no damage or normal course of growth.

COMBE = experiment: Greenhouse post-emergence treatment, herbicidal activity against COMBE; assay type: in vivo, Commelina benghalensis
Method: as §1, §2, §3, §4

LEFFA = experiment: Greenhouse post-emergence treatment, herbicidal activity against LEFFA; assay type: in vivo, Leptochloa fusca subsp. Fascicularis
Method: as §1, §2, §3, §4

IPOHE = experiment: Greenhouse post-emergence treatment, herbicidal activity against IPOHE; assay type: in vivo, Ipomoea hederacea
Method: as §1, §2, §3, §4

PHACA = experiment: Greenhouse post-emergence treatment, herbicidal activity against PHACA; assay type: in vivo, Phalaris canariensis L.
Method: as §1, §2, §3, §4

SEBEX = experiment: Greenhouse post-emergence treatment, herbicidal activity against SEBEX; assay type: in vivo, Sesbania exaltata
Method: as §1, §2, §3, §4

AMARE = experiment: Greenhouse post-emergence treatment, herbicidal activity against AMARE; assay type: in vivo, Amaranthus retroflexus L.
Method: as §1, §2, §3, §4

BRADE = experiment: Greenhouse post-emergence treatment, herbicidal activity against BRADE; assay type: in vivo, Brachiaria deflexa
Method: as §1, §2, §3, §4

For `CC1(C)CON(Cc2ccccc2Cl)C1=O` [b5.1, clomazone], the “herbicidal activity against SETVI, found” value (SETVI; b5.1 75 g/ha a.i.) was 15% and the “herbicidal activity against COMBE, found” value (COMBE; b5.1 75 g/ha a.i.) was 70%.

`COc1cnc(OC)n2nc(NS(=O)(=O)c3c(OCC(F)F)cccc3C(F)(F)F)nc12` [b2.12, penoxsulam] was tested, and the pest or weed control at 8 g/ha (LEFFA; Diplachne fusca, b2.12 8 g/ha a.i., read-out: herbicidal activity against LEFFA, found) was 0%, the “herbicidal activity against IPOHE, found” value (IPOHE; Example 3, b2.12 8 g/ha a.i.) was 80% and the “herbicidal activity against IPOHE, found” value (IPOHE; Example 4, b2.12 8 g/ha a.i.) was 80%.

With `C[C@@H](Oc1ccc(Oc2cnc3cc(Cl)ccc3n2)cc1)C(=O)O` [a1.14, quizalofop-P] the “herbicidal activity against SETVI, found” value (SETVI; a1.14 7.5 g/ha a.i.) was 75%, the “herbicidal activity against SETVI, found” value (SETVI; a1.14 15 g/ha a.i.) was 85% and the “herbicidal activity against PHACA, found” value (PHACA; a1.14 15 g/ha a.i.) was 65%. The “herbicidal activity against SEBEX, found” value (SEBEX; a1.14 15 g/ha a.i.) was 0%, the “herbicidal activity against COMBE, found” value (COMBE; a1.14 10 g/ha a.i.) was 0% and the “herbicidal activity against COMBE, found” value (COMBE; a1.14 15 g/ha a.i.) was 0%. The “herbicidal activity against AMARE, found” value (AMARE; a1.14 7.5 g/ha a.i.) was 20%, the “herbicidal activity against LEFFA, found” value (LEFFA; Example 10, a1.14 10 g/ha a.i.) was 40% and the “herbicidal activity against LEFFA, found” value (LEFFA; Example 11, a1.14 10 g/ha a.i.) was 40%. The “herbicidal activity against LEFFA, found” value (LEFFA; Example 12, a1.14 10 g/ha a.i.) was 40%, the “herbicidal activity against LEFFA, found” value (LEFFA; Example 13, a1.14 10 g/ha a.i.) was 40% and the “herbicidal activity against LEFFA, found” value (LEFFA; a1.14 15 g/ha a.i.) was 65%. For the same compound, the “herbicidal activity against IPOHE, found” value (IPOHE; Example 3, a1.14 12 g/ha a.i.) was 0% and the “herbicidal activity against IPOHE, found” value (IPOHE; Example 5, a1.14 12 g/ha a.i.) was 5%.

`COc1cc(OC)nc(Oc2cccc(Oc3nc(OC)cc(OC)n3)c2C(=O)O)n1` [b2.13, bispyribac] was tested, and the “herbicidal activity against AMARE, found” value (AMARE; b2.13 5 g/ha a.i.) was 90%, the pest or weed control at 5 g/ha (LEFFA; Diplachne fusca, Example 10, b2.13 5 g/ha a.i., read-out: herbicidal activity against LEFFA, found) was 65% and the “herbicidal activity against LEFFA, found” value (LEFFA; Example 11, b2.13 5 g/ha a.i.) was 65%. The “herbicidal activity against IPOHE, found” value (IPOHE; Example 5, b2.13 5 g/ha a.i.) was 75% and the “herbicidal activity against IPOHE, found” value (IPOHE; Example 6, b2.13 5 g/ha a.i.) was 75%.

With `COc1c(Cl)ccc(Cl)c1C(=O)O` [b7.2, dicamba] the pest or weed control at 250 g/ha (LEFFA; Diplachne fusca, b7.2 250 g/ha a.i., read-out: herbicidal activity against LEFFA, found) was 25%.

In the case of `COc1cc(OC)nc(NC(=O)NS(=O)(=O)c2c(-c3nnn(C)n3)cnn2C)n1` [b2.1, azimsulfuron], the “herbicidal activity against COMBE, found” value (COMBE; b2.1 5 g/ha a.i.) is reported as 0% and the “herbicidal activity against IPOHE, found” value (IPOHE; b2.1 10 g/ha a.i.) is reported as 90%.

`CC(C)N1C(=O)c2ccccc2NS1(=O)=O` [b3.1, bentazone] was tested, and the “herbicidal activity against COMBE, found” value (COMBE; b3.1 250 g/ha a.i.) was 95% and the pest or weed control at 250 g/ha (LEFFA; Diplachne fusca, b3.1 250 g/ha a.i., read-out: herbicidal activity against LEFFA, found) was 10%.

`COc1cc(OC)nc(NC(=O)NS(=O)(=O)Cc2ccccc2C(=O)O)n1` [b2.2, bensulfuron] was tested, and the “herbicidal activity against BRADE, found” value (BRADE; b2.2 31 g/ha a.i.) was 0% and the “herbicidal activity against AMARE, found” value (AMARE; b2.2 31 g/ha a.i.) was 80%.

`O=C(O)c1c(Cl)ccc2cc(Cl)cnc12` [b7.5, quinclorac] was tested, and the “herbicidal activity against SETVI, found” value (SETVI; b7.5 90 g/ha a.i.) was 65%, the “herbicidal activity against COMBE, found” value (COMBE; b7.5 7.5 g/ha a.i.) was 0% and the “herbicidal activity against AMARE, found” value (AMARE; b7.5 180 g/ha a.i.) was 50%. The pest or weed control at 75 g/ha (LEFFA; Diplachne fusca, Example 12, b7.5 75 g/ha a.i., read-out: herbicidal activity against LEFFA, found) was 65% and the “herbicidal activity against LEFFA, found” value (LEFFA; Example 13, b7.5 75 g/ha a.i.) was 65%.

With `O=C(O)COc1nc(Cl)c(Cl)cc1Cl` [b7.6, triclopyr] the “herbicidal activity against PHACA, found” value (PHACA; b7.6 50 g/ha a.i.) was 0%, the “herbicidal activity against SEBEX, found” value (SEBEX; b7.6 50 g/ha a.i.) was 50% and the pest or weed control at 50 g/ha (LEFFA; Diplachne fusca, b7.6 50 g/ha a.i., read-out: herbicidal activity against LEFFA, found) was 20%.

In the case of `CCCC(=NOCC)C1=C(O)CC(C2CCCSC2)CC1=O` (stereo not shown) [a1.19, cycloxydim], the “herbicidal activity against BRADE, found” value (BRADE; a1.19 10 g/ha a.i.) is reported as 65%, the “herbicidal activity against COMBE, found” value (COMBE; a1.19 10 g/ha a.i.) is reported as 0% and the “herbicidal activity against AMARE, found” value (AMARE; Example 2, a1.19 10 g/ha a.i.) is reported as 0%. The “herbicidal activity against AMARE, found” value (AMARE; Example 6, a1.19 10 g/ha a.i.) was 0%, the pest or weed control at 5 g/ha (LEFFA; Diplachne fusca, a1.19 5 g/ha a.i., read-out: herbicidal activity against LEFFA, found) was 50% and the “herbicidal activity against IPOHE, found” value (IPOHE; Example 1, a1.19 10 g/ha a.i.) was 10%. For the same compound, the “herbicidal activity against IPOHE, found” value (IPOHE; Example 6, a1.19 10 g/ha a.i.) was 10% and the “herbicidal activity against IPOHE, found” value (IPOHE; a1.19 5 g/ha a.i.) was 0%.

`CC(C)N(C)S(=O)(=O)NC(=O)c1cc(-n2c(=O)cc(C(F)(F)F)n(C)c2=O)c(F)cc1Cl` [b4.3, saflufenacil] was tested, and the pest or weed control at 2.5 g/ha (LEFFA; Diplachne fusca, Example 11, b4.3 2.5 g/ha a.i., read-out: herbicidal activity against LEFFA, found) was 65% and the “herbicidal activity against LEFFA, found” value (LEFFA; Example 12, b4.3 2.5 g/ha a.i.) was 65%.
